Results from patent US20110039721A1, “METHOD FOR PREDICTION ABOUT CARCINOGENICITY OF SUBSTANCE IN RODENT” (Chemicals Evaluation and Research Institute, priority 2007, published 2011).
Structures can show the parent of a compound that is named as a salt.

Legend:
liver = settings: in vivo; cited from earlier work
rodent = settings: in vivo; cited from earlier work
[1] = system: mRNA expressed from the genes (A) to (D) in rat liver; test: Behavior of genes (mRNA expression level, oligo-DNA microarray) in rat liver after 28-day oral administration; assay type: in vivo
Outline: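 Groups of four male F344 SPF rats aged 5 weeks are gavaged once a day for 28 days with test chemical in solvent or with solvent alone at equal volume. Total RNA comes from liver taken on day 28. Fold change of 1.5 or 1/1.5 versus control, directionally consistent, defines significance.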

[2] = (C), Unigene Rn.120914, defined direction +, rat liver, oral once daily 28 days

CN(C)CCN(Cc1cccs1)c1ccccn1 [TS053, Methapyrilene HCl]
Cr+: Liver carcinogenicity (liver)
C+: Carcinogenicity (rodent)

CC(N)=O [TS067, Acetamide]
−: Behavior of gene caused by administration of chemical substance, Gene No. 4218 ([1]; (A), Unigene Rn.167075, defined direction +, rat liver, oral once daily 28 days, significant = 1.5 times or more or 1/1.5 or less of control) | Behavior of gene caused by administration of chemical substance, Gene No. 6182 ([1]; (A), Unigene Rn.5834, defined direction +, rat liver, oral once daily 28 days) | Behavior of gene caused by administration of chemical substance, Gene No. 5600 ([1]; (A), Unigene Rn.9836, defined direction +, rat liver, oral once daily 28 days) | Behavior of gene caused by administration of chemical substance, Gene No. 1494 ([1]; (B), Unigene Rn.1430, defined direction −, rat liver, oral once daily 28 days) | Behavior of gene caused by administration of chemical substance, Gene No. 2045 ([1]; (B), Unigene Rn.19329, defined direction +, rat liver, oral once daily 28 days) | Behavior of gene caused by administration of chemical substance, Gene No. 2203 ([1]; (B), Unigene Rn.21240, defined direction +, rat liver, oral once daily 28 days) | Behavior of gene caused by administration of chemical substance, Gene No. 725 ([1]; (C), Unigene Rn.108075, defined direction −, rat liver, oral once daily 28 days) | Behavior of gene caused by administration of chemical substance, Gene No. 1163 ([1]; (C), Unigene Rn.11766, defined direction +, rat liver, oral once daily 28 days) | Behavior of gene caused by administration of chemical substance, Gene No. 4973 ([1]; (C), Unigene Rn.118529, defined direction −, rat liver, oral once daily 28 days) | Behavior of gene caused by administration of chemical substance, Gene No. 4095 ([1]; (C), Unigene Rn.119024, defined direction −, rat liver, oral once daily 28 days) | Behavior of gene caused by administration of chemical substance, Gene No. 1334 [1, 2] | Behavior of gene caused by administration of chemical substance, Gene No. 6620 [1, 2] | Behavior of gene caused by administration of chemical substance, Gene No. 5878 ([1]; (C), Unigene Rn.143213, defined direction −, rat liver, oral once daily 28 days) | Behavior of gene caused by administration of chemical substance, Gene No. 1131 ([1]; (C), Unigene Rn.144946, defined direction −, rat liver, oral once daily 28 days) | Behavior of gene caused by administration of chemical substance, Gene No. 1562 ([1]; (C), Unigene Rn.14744, defined direction −, rat liver, oral once daily 28 days) | Behavior of gene caused by administration of chemical substance, Gene No. 1741 ([1]; (C), Unigene Rn.1647, defined direction −, rat liver, oral once daily 28 days) | Behavior of gene caused by administration of chemical substance, Gene No. 893 ([1]; (C), Unigene Rn.164817, defined direction +, rat liver, oral once daily 28 days) | Behavior of gene caused by administration of chemical substance, Gene No. 6026 ([1]; (C), Unigene Rn.167685, defined direction −, rat liver, oral once daily 28 days) | Behavior of gene caused by administration of chemical substance, Gene No. 1993 ([1]; (C), Unigene Rn.18728, defined direction −, rat liver, oral once daily 28 days) | Behavior of gene caused by administration of chemical substance, Gene No. 813 ([1]; (C), Unigene Rn.201760, defined direction +, rat liver, oral once daily 28 days) | Behavior of gene caused by administration of chemical substance, Gene No. 2494 ([1]; (C), Unigene Rn.23969, defined direction +, rat liver, oral once daily 28 days) | Behavior of gene caused by administration of chemical substance, Gene No. 2546 ([1]; (C), Unigene Rn.24561, defined direction −, rat liver, oral once daily 28 days) | Behavior of gene caused by administration of chemical substance, Gene No. 3776 ([1]; (C), Unigene Rn.43232, defined direction −, rat liver, oral once daily 28 days) | Behavior of gene caused by administration of chemical substance, Gene No. 3929 ([1]; (C), Unigene Rn.4620, defined direction +, rat liver, oral once daily 28 days) | Behavior of gene caused by administration of chemical substance, Gene No. 1119 ([1]; (C), Unigene Rn.9757, defined direction +, rat liver, oral once daily 28 days) | Behavior of gene caused by administration of chemical substance, Gene No. 6742 ([1]; (C), Unigene Rn.9779, defined direction +, rat liver, oral once daily 28 days) | Behavior of gene caused by administration of chemical substance, Gene No. 5634 ([1]; (C), Unigene Rn.9862, defined direction −, rat liver, oral once daily 28 days) | Behavior of gene caused by administration of chemical substance, Gene No. 5726 ([1]; (D), Unigene Rn.9939, defined direction −, rat liver, oral once daily 28 days)
+: Behavior of gene caused by administration of chemical substance, Gene No. 4846 ([1]; (A), Unigene Rn.144554, defined direction +, rat liver, oral once daily 28 days) | Behavior of gene caused by administration of chemical substance, Gene No. 2026 ([1]; (A), Unigene Rn.167075, defined direction −, rat liver, oral once daily 28 days) | Behavior of gene caused by administration of chemical substance, Gene No. 533 ([1]; (C), Unigene Rn.106184, defined direction +, rat liver, oral once daily 28 days) | Behavior of gene caused by administration of chemical substance, Gene No. 6303 ([1]; (C), Unigene Rn.123063, defined direction −, rat liver, oral once daily 28 days) | Behavior of gene caused by administration of chemical substance, Gene No. 154 ([1]; (C), Unigene Rn.185941, defined direction −, rat liver, oral once daily 28 days)
C+: Carcinogenicity (rodent)

Cc1ccccc1[N+](=O)[O-] [TS087, o-Nitrotoluene]
−: Behavior of gene caused by administration of chemical substance ([1]; Gene No. 154, Rn.185941, group (C)) | Behavior of gene caused by administration of chemical substance ([1]; Gene No. 813, Rn.201760, group (C)) | Behavior of gene caused by administration of chemical substance ([1]; Gene No. 893, Rn.164817, group (C)) | Behavior of gene caused by administration of chemical substance ([1]; Gene No. 1119, Rn.9757, group (C)) | Behavior of gene caused by administration of chemical substance ([1]; Gene No. 1131, Rn.144946, group (C)) | Behavior of gene caused by administration of chemical substance ([1]; Gene No. 1163, Rn.11766, group (C)) | Behavior of gene caused by administration of chemical substance ([1]; Gene No. 1334, Rn.120914, group (C)) | Behavior of gene caused by administration of chemical substance ([1]; Gene No. 1562, Rn.14744, group (C)) | Behavior of gene caused by administration of chemical substance ([1]; Gene No. 1741, Rn.1647, group (C)) | Behavior of gene caused by administration of chemical substance ([1]; Gene No. 1993, Rn.18728, group (C)) | Behavior of gene caused by administration of chemical substance ([1]; Gene No. 2045, Rn.19329, group (B)) | Behavior of gene caused by administration of chemical substance ([1]; Gene No. 2203, Rn.21240, group (B)) | Behavior of gene caused by administration of chemical substance ([1]; Gene No. 2494, Rn.23969, group (C)) | Behavior of gene caused by administration of chemical substance ([1]; Gene No. 2546, Rn.24561, group (C)) | Behavior of gene caused by administration of chemical substance ([1]; Gene No. 3776, Rn.43232, group (C)) | Behavior of gene caused by administration of chemical substance ([1]; Gene No. 3929, Rn.4620, group (C)) | Behavior of gene caused by administration of chemical substance ([1]; Gene No. 4095, Rn.119024, group (C)) | Behavior of gene caused by administration of chemical substance ([1]; Gene No. 5634, Rn.9862, group (C)) | Behavior of gene caused by administration of chemical substance ([1]; Gene No. 5726, Rn.9939, group (D)) | Behavior of gene caused by administration of chemical substance ([1]; Gene No. 5878, Rn.143213, group (C)) | Behavior of gene caused by administration of chemical substance ([1]; Gene No. 6026, Rn.167685, group (C)) | Behavior of gene caused by administration of chemical substance ([1]; Gene No. 6620, Rn.120914, group (C)) | Behavior of gene caused by administration of chemical substance ([1]; Gene No. 6742, Rn.9779, group (C))
C+: Carcinogenicity (rodent)
+: Behavior of gene caused by administration of chemical substance ([1]; Gene No. 533, Rn.106184, group (C)) | Behavior of gene caused by administration of chemical substance ([1]; Gene No. 725, Rn.108075, group (C)) | Behavior of gene caused by administration of chemical substance ([1]; Gene No. 1494, Rn.1430, group (B)) | Behavior of gene caused by administration of chemical substance ([1]; Gene No. 2026, Rn.167075, group (A)) | Behavior of gene caused by administration of chemical substance ([1]; Gene No. 4218, Rn.167075, group (A)) | Behavior of gene caused by administration of chemical substance ([1]; Gene No. 4846, Rn.144554, group (A)) | Behavior of gene caused by administration of chemical substance ([1]; Gene No. 4973, Rn.118529, group (C)) | Behavior of gene caused by administration of chemical substance ([1]; Gene No. 5600, Rn.9836, group (A)) | Behavior of gene caused by administration of chemical substance ([1]; Gene No. 6182, Rn.5834, group (A)) | Behavior of gene caused by administration of chemical substance ([1]; Gene No. 6303, Rn.123063, group (C))
